In assay [1] the target is T1, hMC3-R (Homo sapiens, UniProt P41968).
T1 construct: expressed in transfected cells; host or cells: CHO-K1 (membranes)
Put plainly: cyclic AMP bioassay (ECL), CHO-K1 cells expressing hMC3-R. It is filed as cell-based. The settings on record: Table 3B, cAMP.
Method: (§4) Intracellular cyclic AMP (cAMP) levels were determined by an electrochemiluminescence (ECL) assay (Meso Scale Discovery®, Gaithersburg, Md.; referred to hereinafter as MSD). […] Transgenic CHO-K1 cells stably expressing hMC receptor subtypes 1, 3, 4 or 5 were dispensed at a density of approximately 7,000 cells/well in 384-well Multi-Array® plates (MSD) containing integrated carbon electrodes and coated with anti-cAMP antibody. Increasing concentrations of the test compounds were added and the cells were incubated for approximately 40 minutes at approximately 37° C. […] At the end of the second incubation period read buffer (Tris-buffered solution containing an ECL co-reactant and Triton X-100 at ph 7.8) was added and the cAMP levels in the cell lysates were immediately determined by ECL detection with a Sector Imager 6000 Reader® (MSD). Data were analyzed using a computer-assisted non-linear regression analysis (XL fit; IDBS) and reported as either an EC50 value or a Kb value.

For assay [2], the target named is T1, hMC3-R. The assay is described as follows: Radioligand binding assay, [125I]-NDP-α-MSH competition, hMC3-R. The settings on record: CHO-K1 cell membranes. Here is the method: (§1) Radioligand Binding Assays
(§2) Cellular membranes used for the in vitro receptor binding assays were obtained from transgenic CHO-K1 cells stably expressing hMC-R receptor subtypes 1, 3, 4 or 5. […] The pellets were resuspended in the same buffer and centrifuged at 50,000 g for 10 minutes at approximately 4° C. The washed pellets containing the cellular membranes were stored at approximately −80° C.
(§3) Filters were washed three times with 50 mM Tris-HCl at pH 7.4 at a temperature of approximately 0-4° C. and then assayed for radioactivity using a Packard Topcount® scintillation counter. Binding data were analyzed by computer-assisted non-linear regression analysis (XL fit; IDBS).

The target of assay [3] is T2, hMC5-R (Homo sapiens, UniProt P33032).
T2 construct: expressed in transfected cells; host or cells: CHO-K1 (membranes)
The assay is described as follows: Radioligand binding assay, [125I]-NDP-α-MSH competition, hMC5-R. The settings on record: CHO-K1 cell membranes. Here is the method: as §1, §2, §3

Assay [4] concerns the target T3, hMC1-R (Homo sapiens, UniProt Q01726).
T3 construct: expressed in transfected cells; host or cells: CHO-K1 (membranes)
Put plainly: cyclic AMP bioassay (ECL), CHO-K1 cells expressing hMC1-R. It is filed as cell-based. Conditions: Table 3B, cAMP.
Method: as §4

The target of assay [5] is T4, hMC4-R (Homo sapiens, UniProt P32245).
T4 construct: expressed in transfected cells; host or cells: CHO-K1 (membranes)
Put plainly: Radioligand binding assay, [125I]-NDP-α-MSH competition, hMC4-R. The settings on record: CHO-K1 cell membranes. Here is the method: as §1, §2, §3

The target of assay [6] is T2, hMC5-R. Put plainly: cyclic AMP bioassay (ECL), CHO-K1 cells expressing hMC5-R. The class given is cell-based. Conditions: Table 3B, cAMP.
Method: as §4
The target in assay [7] is T4, hMC4-R. Put plainly: cyclic AMP bioassay (ECL), CHO-K1 cells expressing hMC4-R. The class given is cell-based. The settings on record: Table 3B, cAMP.
Method: as §4
In assay [8] the target is T3, hMC1-R. The assay is described as follows: Radioligand binding assay, [125I]-NDP-α-MSH competition, hMC1-R. Conditions: CHO-K1 cell membranes. Here is the method:
as §1, §2, §3

Bridges are numbered along the chain shown (N, C = ends). [ ]: non-standard residue; d: D form. Pen = CC(C)(S)[C@H](N)C(=O)O; Nle = CCCC[C@H](N)C(=O)O; GABA = NCCCC(=O)O

Here are results for one substance from patent US9458195B2, “Melanocortin receptor ligands” (Ipsen Pharma S.A.S., priority 2005, dated 2016).

T2 sequence (P33032 whole entry): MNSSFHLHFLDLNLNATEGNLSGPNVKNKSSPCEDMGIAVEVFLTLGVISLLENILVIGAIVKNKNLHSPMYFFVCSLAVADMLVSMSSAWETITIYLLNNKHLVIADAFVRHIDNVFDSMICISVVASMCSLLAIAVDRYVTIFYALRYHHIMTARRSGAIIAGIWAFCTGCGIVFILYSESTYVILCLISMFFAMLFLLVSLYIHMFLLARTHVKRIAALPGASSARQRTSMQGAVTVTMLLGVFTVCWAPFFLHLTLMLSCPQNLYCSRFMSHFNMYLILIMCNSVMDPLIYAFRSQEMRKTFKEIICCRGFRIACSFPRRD
T3 sequence (Q01726 whole entry): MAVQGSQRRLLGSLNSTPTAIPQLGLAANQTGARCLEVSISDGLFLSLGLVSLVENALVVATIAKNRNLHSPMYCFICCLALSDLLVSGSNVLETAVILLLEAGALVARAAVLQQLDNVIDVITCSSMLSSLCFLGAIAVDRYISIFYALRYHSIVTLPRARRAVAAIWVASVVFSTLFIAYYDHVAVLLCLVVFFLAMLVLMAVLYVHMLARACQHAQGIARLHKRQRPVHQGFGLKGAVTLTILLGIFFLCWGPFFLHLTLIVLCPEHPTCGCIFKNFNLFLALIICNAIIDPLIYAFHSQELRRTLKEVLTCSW
T4 sequence (P32245 whole entry): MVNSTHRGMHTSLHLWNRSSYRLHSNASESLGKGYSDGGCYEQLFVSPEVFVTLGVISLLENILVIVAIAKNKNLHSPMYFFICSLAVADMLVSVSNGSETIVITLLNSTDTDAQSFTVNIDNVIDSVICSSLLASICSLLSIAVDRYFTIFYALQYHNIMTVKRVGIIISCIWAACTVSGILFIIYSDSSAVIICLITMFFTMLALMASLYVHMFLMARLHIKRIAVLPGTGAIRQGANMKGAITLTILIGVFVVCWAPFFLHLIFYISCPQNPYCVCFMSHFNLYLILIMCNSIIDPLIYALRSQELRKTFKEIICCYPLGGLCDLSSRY
T1 sequence (P41968 whole entry): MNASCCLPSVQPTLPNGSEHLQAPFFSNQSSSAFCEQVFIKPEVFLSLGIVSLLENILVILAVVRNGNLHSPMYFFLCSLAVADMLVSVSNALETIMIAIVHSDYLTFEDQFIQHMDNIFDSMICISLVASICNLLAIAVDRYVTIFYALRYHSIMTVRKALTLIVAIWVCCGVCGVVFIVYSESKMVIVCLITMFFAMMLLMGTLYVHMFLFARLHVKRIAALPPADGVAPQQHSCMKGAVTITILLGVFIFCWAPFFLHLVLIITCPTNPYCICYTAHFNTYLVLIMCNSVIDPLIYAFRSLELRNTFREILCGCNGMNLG

Usually EC50 stands for the concentration giving half of the maximal effect. By Ki is commonly meant a measure of affinity in units of concentration, obtained from inhibition or displacement. Low values mean tighter binding, high ones weaker binding. For the substance “Ac-[Nle]CH[dF]RW[GABA][Pen]-NH2 (disulfide 2-8)”, the EC50 on hMC3-R [1] stood at 0.24 nM; on hMC1-R [4], 0.28 nM; on hMC5-R [6], 3.9 nM; at hMC4-R [7], 0.028 nM. The inhibition constant (Ki) on hMC3-R [2] was 10 nM; on hMC5-R [3], 0.42 nM; at hMC4-R [5], 0.43 nM; on hMC1-R [8] it was 0.12 nM.
